Where two headings read alike, the source gives them in different places.
What was measured:
adenosine A2 receptor = adenosine A2 receptor (Rattus norvegicus, UniProt P30543); test: Adenosine Receptor Binding - A2 Receptor Affinity (RBA2), [3H]NECA displacement in striatal membranes; parameters: species or system rats; settings: 4 nM [3H]NECA, 50 nM N6-cyclopentyladenosine, 60 minutes at 25°C, read-out: RBA-2
Method: Adenosine Receptor Binding - A2 Receptor Affinity (RBA2)
Brains from 200-500 g mixed sex Sprague-Dawley rats were purchased from Pel-Freez (Rogers, Arkansas). […] Brains were thawed and then kept on ice while the striata were dissected out. […] When needed, tissue was thawed at room temperature, disrupted in a Polytron, and kept on ice until used.
Test compounds were dissolved at 10 mM in dimethylsulfoxide on the same day as the experiment, and diluted in dimethylsulfoxide to 100x the final incubation concentration. […] [^3H]NECA was diluted to 40 nM in Tris. […] After all additions, the rack of tubes was vortexed, and the tubes were then incubated for 60 min at 25°C in a shaking water bath. The rack of tubes was vortexed an additional time halfway through the incubation.
Incubations were terminated by filtration through 2.4 cm GF/B filters under reduced pressure. Each tube was filtered as follows: the contents of the tube were poured onto the filter, 4 ml of ice-cold Tris were added to the tube and the contents poured onto the filter, and the filter was washed twice with 4 ml of ice-cold Tris. The filtration was complete in about twelve seconds. Filters were put in scintillation vials, 8 ml of Formula 947 scintillation fluid added, and the vials left overnight, shaken, and counted in a liquid scintillation counter at 40% efficiency.

Carrageenan pleurisy = Carrageenan pleurisy assay (immunoinflammatory test); format: in vivo, rats; settings: Rattus norvegicus; for ED50: 4 h, four hours after carrageenan, compound given one hour prior to carrageenan
Method: Assessment of immunoinflammatory or antiinflammatory activity is provided by the carrageenan pleurisy assay. Carrageenan pleurisy is induced as previously described by Carter, G. W., et al., in J. Pharm. Pharmacol 34:66-67, 1982. Carrageenan (310 ug/rat) is injected intrapleurally in a 0.25 ml volume of pyrogen-free saline. Four hours later, the rats are sacrificed and 2 ml of a phenol red solution (325 mg phenol red in 1 liter of 0.05 M phosphate buffered saline) are added to each pleural cavity. The contents of the cavities are mixed and transferred to glass test tubes. A 50 ul aliquot is removed from each tube and exudate cells are counted after red blood cells lysis (with Zapoglobin; Coulter Electronics, Hialeah FL) using a Coulter model ZBI counter. The remaining exudate-phenol red mixture is centrifuged at 750 xg for 15 minutes. One hundred µl of the supernatent fluid is diluted with 3.9 ml of phosphate buffer (0.072 M of tribasic sodium phosphate, Na3PO4·12H2O, in water) and the absorbance is measured at 560 nm.
Exudate volume is calculated as follows: [formula] where V1 = unknown volume of exudate, V2 K volume of dye added to cavity (2 ml), A1 = absorbance of exudate (assumed to be zero), A2 = absorbance of the phenol red solution, A3 = absorbance of exudate and phenol red solution.
Inhibition of exudate or formation is calculated by the following equations: [formula] [formula] ID50 values are calculated by Probit analysis.
The compound of Example 1 was administered one hour prior to carrageenan injection.

adenosine A1 receptor = biological target: T1, adenosine A1 receptor (Rattus norvegicus, UniProt P25099); test: Adenosine Receptor Binding - A1 Receptor Affinity (RBA1), [3H]-CHA displacement in brain membranes; parameters: species or system rats; settings: 1.0 nM [3H]-CHA, rat whole brain membranes, one hour at 25°C; read-out: RBA-1
T1 sequence (P25099 1-326): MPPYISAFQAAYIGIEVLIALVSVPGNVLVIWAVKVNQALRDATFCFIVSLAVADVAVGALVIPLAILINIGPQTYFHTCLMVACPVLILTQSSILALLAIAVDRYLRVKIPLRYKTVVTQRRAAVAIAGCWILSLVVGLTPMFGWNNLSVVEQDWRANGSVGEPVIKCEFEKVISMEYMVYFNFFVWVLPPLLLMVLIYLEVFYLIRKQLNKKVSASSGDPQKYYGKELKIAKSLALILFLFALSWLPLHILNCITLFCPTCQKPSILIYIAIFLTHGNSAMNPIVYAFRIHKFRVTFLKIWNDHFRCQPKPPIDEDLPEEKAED
Method: Adenosine Receptor Binding - A1 Receptor Affinity (RBA1)
The supernatant was discarded, and the pellet was resuspended and centrifuged as before.
Incubation volume was 2 ml. Unbound [^3H]-CHA was separated by rapid filtration under reduced pressure through Whatman glass fiber (GF/B) filters.
Nonspecific binding was defined as the binding which occurred in the presence of 1 mM theophylline. […] Since the amount of radioligand bound was a small fraction of the total amount added, free radioligand was defined as the concentration (nM) of radioligand added to the incubation mixture.

male Swiss-Webster mice = test: Antiwrithing (AW) test (analgesic test), acetic acid-induced writhing; format: in vivo; settings: Mus musculus, sc; subcutaneous, 20 minutes before acetic acid (0.6%, 10 ml/kg) i.p.; dose suppressing writhing by 50%
Method: The antiwrithing (AW) test provides preliminary assessment of compounds with potential analgesic activity. The test is performed in male Swiss-Webster mice. Compounds are administered subcutaneously in aqueous 0.2% methylcellulose or other appropriate vehicles in volumes of 10 ml/kg. Dosages represent active moiety.
Acetic acid (0.6%, 10 ml/kg) is injected intraperitoneally 20 minutes after administration of the adenosine agonist. Writhing movements are counted for five minutes starting seven minutes after the acetic acid injection. Writhing is defined as abdominal constriction and stretching of the body and hind legs with concave arching of the back. Data are.expressed as ED50 values, where the ED50 is the dose necessary to suppress writhing by 50% relative to vehicle controls. ED50 values are calculated by nonlinear regression analysis.

adenosine A2 receptor, sequence (P30543 whole entry): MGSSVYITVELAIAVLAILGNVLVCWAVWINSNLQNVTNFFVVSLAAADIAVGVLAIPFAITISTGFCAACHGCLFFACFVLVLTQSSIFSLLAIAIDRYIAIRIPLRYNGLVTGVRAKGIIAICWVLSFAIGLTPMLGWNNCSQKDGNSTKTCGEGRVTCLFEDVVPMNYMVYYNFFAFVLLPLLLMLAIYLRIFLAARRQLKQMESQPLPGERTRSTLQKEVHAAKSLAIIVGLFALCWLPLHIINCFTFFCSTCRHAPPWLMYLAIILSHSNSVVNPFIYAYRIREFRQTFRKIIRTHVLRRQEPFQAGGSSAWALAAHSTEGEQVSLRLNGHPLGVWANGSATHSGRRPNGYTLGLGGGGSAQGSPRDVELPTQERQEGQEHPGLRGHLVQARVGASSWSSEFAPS

| IC50 (adenosine A2 receptor) [nM] | IC50 (adenosine A1 receptor) [nM] | SMILES | inhibition at 0.1 mg/kg (Carrageenan pleurisy; read-out: % Inhibition Exudate) [%] | inhibition at 0.1 mg/kg (Carrageenan pleurisy; read-out: % Inhibition WBC) [%] | inhibition at 0.3 mg/kg (Carrageenan pleurisy; read-out: % Inhibition Exudate) [%] | inhibition at 0.3 mg/kg (Carrageenan pleurisy; read-out: % Inhibition WBC) [%] | ED50 (male Swiss-Webster mice) [mg/kg] | ED50 (Carrageenan pleurisy; exudate cells (WBC), read-out: ID50 (mg/kg) WBC) [mg/kg] | ED50 (Carrageenan pleurisy; exudate volume, read-out: ID50 (mg/kg) Exudate) [mg/kg] | inhibition at 0.2 mg/kg (Carrageenan pleurisy; read-out: % Inhibition Exudate) [%] | inhibition at 0.2 mg/kg (Carrageenan pleurisy; read-out: % Inhibition WBC) [%] | inhibition at 0.4 mg/kg (Carrageenan pleurisy; read-out: % Inhibition Exudate) [%] | inhibition at 0.4 mg/kg (Carrageenan pleurisy; read-out: % Inhibition WBC) [%] | inhibition at 0.8 mg/kg (Carrageenan pleurisy; read-out: % Inhibition Exudate) [%] | inhibition at 0.8 mg/kg (Carrageenan pleurisy; read-out: % Inhibition WBC) [%] | inhibition at 1 mg/kg (Carrageenan pleurisy; read-out: % Inhibition Exudate) [%] | inhibition at 1 mg/kg (Carrageenan pleurisy; read-out: % Inhibition WBC) [%] |
| --- | --- | --- | --- | --- | --- | --- | --- | --- | --- | --- | --- | --- | --- | --- | --- | --- | --- |
| 3090 | 0.69 | OC1C(CCl)OC(n2cnc3c(NC4CC5CCC4C5)ncnc32)C1O (stereo not drawn) [Example 5, N6-2-endo-norbornyl-5'-chloro-5'-deoxy-adenosine] | 11.7 | 18.4 | 16.8 | 40 |  |  |  |  |  |  |  |  |  |  |  |
|  | 0.85 | OCC1OC(n2cnc3c(NC4CC5CCC4C5)ncnc32)C(O)C1O (stereo not drawn) [Example 1, N6-endo-Bicyclo[2.2.1]heptyl adenosine] | 49.3 | 74.1 |  |  | 0.03 | 0.12 | 0.15 | 60 | 70 | 81.3 | 90 | 42.7 | 68.4 |  |  |
|  | 1.4 | OCC1OC(n2cnc3c(NC4CC5CCC4C5)ncnc32)C(O)C1O (stereo not drawn) [Example 2, N6-exo-Bicyclo[2.2.1]heptyladenosine] |  |  | 24.3 | 25.7 |  |  |  |  |  |  |  |  |  | 22.9 | 52.9 |
